# Test results: patent US10800789B2, “Antiviral compounds” (Gilead Pharmasset LLC, priority 2012, dated 2020)
# Like-named read-outs stand apart in the source and are kept apart here.
# Assays:
# [1] = tested on: stable HCV 1b RLuc replicon cells (dicistronic genotype 1b Con1 replicon); assay: Renilla luciferase HCV replicon reporter assay, genotype 1b; type: cell-based; conditions: Hepatitis C virus, 72 h, stable 1b Con1 RLuc replicon cells, 72 hours; read-out: 1b
# Description: (§1) Evaluation of Cell-Based Anti-HCV Activity:
# (§2) Antiviral potency (EC50) was determined using a Renilla luciferase (RLuc)-based HCV replicon reporter assay. To perform the assay for genotype 1 and 2a JFH-1, stable HCV 1a RLuc replicon cells (harboring a dicistronic genotype 1a H77 replicon that encodes a RLuc reporter), stable HCV 1b RLuc replicon cells (harboring a dicistronic genotype 1b Con1 replicon that encodes a RLuc reporter), or stable HCV 2a JFH-1 Rluc replicon cells (harboring a dicistronic genotype 2a JFH-1 replicon that encodes a RLuc reporter; with L31 present in NS5A) were dispensed into 384-well plates for EC50 assays. To perform the assay for genotype 2a (with M31 present in NS5A) or 2b, NS5A chimeric genotype 2a JFH-1 replicons that encodes a RLuc-Neo reporter and either genotype 2a J6 strain NS5A gene or genotype 2b MD2b-1 strain NS5A gene (both with M31 present) respectively, were either transiently transfected (t) into Huh-Lunet cells or were established as stably replicating replicon cells (s) is provided. Either cells were dispensed into 384-well plates for EC50 assays. To perform the assay for genotype 3 and 4, NS5A chimeric genotype 1b Con1 replicons that encodes a Pi-RLuc reporter and either genotype 3a S52 strain NS5A gene or genotype 4a ED43 strain NS5A gene respectively, were transiently transfected (t) into Huh-Lunet cells, which were subsequently dispensed into 384-well plates. Compounds were dissolved in DMSO at a concentration of 10 mM and diluted in DMSO either manually or using an automated pipeting instrument. Serially 3-fold diluted compounds were either manually mixed with cell culture media and added to the seeded cells or directly added to the cells using an automated instrument. DMSO was used as a negative (solvent; no inhibition) control, and the protease inhibitor ITMN-191 was included at a concentration>100×EC50 as a positive control. 72 hours later, cells were lysed and Renilla luciferase activity quantified as recommended by the manufacturer (Promega-Madison, Wis.). Non-linear regression was performed to calculate EC50 values.
# [2] = tested on: stable HCV 1a RLuc replicon cells (dicistronic genotype 1a H77 replicon); assay: Renilla luciferase HCV replicon reporter assay, genotype 1a; type: cell-based; conditions: Hepatitis C virus, 72 h, stable 1a H77 RLuc replicon cells
# Description: as §1, §2
# [3] = tested on: stable HCV 2a JFH-1 Rluc replicon cells (L31 present in NS5A); assay: Renilla luciferase HCV replicon reporter assay, genotype 2a JFH-1; type: cell-based; conditions: Hepatitis C virus
# Description: as §1, §2
# [4] = tested on: NS5A chimeric genotype 2a JFH-1 replicon with genotype 2a J6 strain NS5A gene (M31 present); assay: Replicon assay, genotype 2a J6 NS5A chimera; type: cell-based, HCV; conditions: Hepatitis C virus
# Description: as §1, §2
# [5] = tested on: NS5A chimeric genotype 2a JFH-1 replicon with genotype 2b MD2b-1 strain NS5A gene (M31 present); assay: Replicon assay, genotype 2b NS5A chimera; type: cell-based, HCV; conditions: Hepatitis C virus
# Description: as §1, §2
# [6] = tested on: NS5A chimeric genotype 1b Con1 replicon with genotype 3a S52 strain NS5A gene; assay: Replicon assay, genotype 3a NS5A chimera; type: cell-based, HCV; conditions: Hepatitis C virus
# [7] = tested on: NS5A chimeric genotype 1b Con1 replicon with genotype 4a ED43 strain NS5A gene; assay: Replicon assay, genotype 4a NS5A chimera; type: cell-based, HCV; conditions: Hepatitis C virus
# [8] = read-out: 2a JFH (nM), genotype 2a JFH-1 replicon (L31 in NS5A), stable cells
# [9] = read-out: 2a JFH, stable 2a JFH-1 Rluc replicon cells, L31 in NS5A, activity range
# [10] = read-out: 2a J6 (t) (nM), genotype 2a J6 NS5A chimeric replicon (M31), transiently transfected (t) into Huh-Lunet cells
# [11] = read-out: 2a J6 (t), transiently transfected (t) into Huh-Lunet cells, activity range
# [12] = 2BS, read-out: 2b (s), stably replicating replicon cells (s), activity range
# [13] = read-out: 2b (s) (nM), genotype 2b MD2b-1 NS5A chimeric replicon (M31), stably replicating replicon cells (s)
# [14] = read-out: 3a (s) (nM), genotype 3a NS5A chimeric replicon, stable replicon cells (s)
# [15] = read-out: 3a (s), (s), activity range
# [16] = read-out: 4a (s) (nM), genotype 4a NS5A chimeric replicon, stable replicon cells (s)
# [17] = read-out: 4a (s), (s), activity range
SMILES,EC50 [1] [nM],EC50 [2] [nM],EC50 ([2]; activity range) [nM],"EC50 [3, 8] [nM]","EC50 [3, 9] [nM]","EC50 [4, 10] [nM]","EC50 [4, 11] [nM]","EC50 [5, 12] [nM]","EC50 [5, 13] [nM]","EC50 [6, 14] [nM]","EC50 [6, 15] [nM]","EC50 [7, 16] [nM]","EC50 [7, 17] [nM]"
COC(=O)N[C@H](C(=O)N1[C@@H](C)CC[C@H]1c1ncc(-c2ccc3c(c2)COc2cc4c(ccc5nc([C@@H]6CC[C@H](C)N6C(=O)[C@@H](NC(=O)OC)[C@H](C)O)[nH]c54)cc2-3)[nH]1)C(C)C [HW],0.066,0.056,< 0.1,0.047,< 0.1,1.1,1 to 44,1 to 44,1.79,0.085,< 0.1,0.021,< 0.1
COC(=O)N[C@H](C(=O)N1[C@H](c2ncc(-c3ccc4c(c3)COc3cc5c(ccc6nc([C@@H]7CC[C@H](C)N7C(=O)[C@@H](NC(=O)OC)C7CCOCC7)[nH]c65)cc3-4)[nH]2)C[C@@H]2CCC[C@@H]21)C(C)C [IY],0.03,0.023,< 0.1,0.012,< 0.1,0.047,< 0.1,< 0.1,0.069,0.045,< 0.1,0.019,< 0.1
CC[C@H]1CC[C@@H](c2ncc(-c3ccc4c(c3)COc3cc5c(ccc6nc([C@@H]7C[C@H](C)CN7C(=O)[C@@H](NC(=O)OC)C7CCOCC7)[nH]c65)cc3-4)[nH]2)N1C(=O)[C@@H](NC(=O)OC)C(C)C [HZ],0.025,0.012,< 0.1,0.014,< 0.1,0.023,< 0.1,< 0.1,0.073,0.14,0.1 to 0.999,0.012,< 0.1
COC(=O)N[C@H](C(=O)N1[C@@H](C)CC[C@H]1c1ncc(-c2ccc3c(c2)COc2cc4c(ccc5nc([C@@H]6CC[C@H](C)N6C(=O)[C@@H](NC(=O)OC)[C@H](C)OC)[nH]c54)cc2-3)[nH]1)[C@H](C)OC [GE],0.062,0.043,< 0.1,0.104,0.1 to 0.999,0.508,0.1 to 0.999,0.1 to 0.999,0.772,0.445,0.1 to 0.999,0.026,< 0.1
"CC[C@H]1CC[C@@H](c2ncc(-c3ccc4c(c3)COc3cc5c(ccc6nc([C@@H]7C[C@H](COC)CN7C(=O)[C@@H](NC(=O)OC)C(C)C)[nH]c65)cc3-4)[nH]2)N1C(=O)[C@@H](NC(=O)OC)C(C)C [ER, Methyl {(2S)-1-[(2S,4S)-2-(9-{2-[(2S,5S)-5-ethyl-1-{(2S)-2-[(methoxycarbonyl)amino]-3-methylbutanoyl}pyrrolidin-2-yl]-1H-imidazol-5-yl}-1,11-dihydroisochromeno[4′,3′:6,7]naphtho[1,2-d]imidazol-2-yl)-4-(methoxymethyl)pyrrolidin-1-yl]-3-methyl-1-oxobutan-2-yl}carbamate]",0.02,0.016,< 0.1,0.021,< 0.1,,,0.1 to 0.999,0.852,2.8,1 to 44,0.011,< 0.1
CC[C@H]1CC[C@@H](c2ncc(-c3ccc4c(c3)COc3cc5c(ccc6nc([C@@H]7CC[C@H](C)N7C(=O)[C@@H](NC(=O)OC)[C@@H](C)CC)[nH]c65)cc3-4)[nH]2)N1C(=O)C(NC(=O)OC)C1CCOCC1 (some centres unmarked) [IJ],0.029,0.027,< 0.1,0.012,< 0.1,,,0.1 to 0.999,0.212,0.127,0.1 to 0.999,0.036,< 0.1
"CC[C@H]1CC[C@@H](c2ncc(-c3ccc4c(c3)COc3cc5c(ccc6nc([C@@H]7CC[C@H](C)N7C(=O)[C@@H](NC(=O)OC)[C@@H](C)OC)[nH]c65)cc3-4)[nH]2)N1C(=O)[C@@H](NC(=O)OC)C(C)C [EQ, methyl{(2S,3R)-1-[(2S,5S)-2-(9-{2-[(2S,5S)-5-ethyl-1-{(2S)-2-[(methoxycarbonyl)amino]-3-methylbutanoyl}pyrrolidin-2-yl]-1H-imidazol-5-yl}-1,11-dihydroisochromeno[4′,3′:6,7]naphtho[1,2-d]imidazol-2-yl)-5-methylpyrrolidin-1-yl]-3-methoxy-1-oxobutan-2-yl}carbamate]",0.036,0.034,< 0.1,0.022,< 0.1,,,0.1 to 0.999,0.279,0.475,0.1 to 0.999,0.025,< 0.1
CC[C@H]1CC[C@@H](c2ncc(-c3ccc4c(c3)COc3cc5c(ccc6nc([C@@H]7CC[C@H](C)N7C(=O)[C@@H](NC(=O)OC)C7CCOCC7)[nH]c65)cc3-4)[nH]2)N1C(=O)[C@@H](NC(=O)OC)[C@@H](C)CC [IM],0.04,0.033,< 0.1,0.016,< 0.1,,,0.1 to 0.999,0.212,0.15,0.1 to 0.999,0.043,< 0.1
CC[C@H]1CC[C@@H](c2nc3ccc4cc5c(cc4c3[nH]2)OCc2cc(-c3cnc([C@@H]4C[C@@H]6CCC[C@@H]6N4C(=O)[C@@H](NC(=O)OC)[C@@H](C)CC)[nH]3)ccc2-5)N1C(=O)[C@@H](NC(=O)OC)C1CCOCC1 [IX],0.052,0.035,< 0.1,0.024,< 0.1,,,0.1 to 0.999,0.236,0.246,0.1 to 0.999,0.057,< 0.1
